Test results reported in US9926321B2, “Hsp90 inhibitors” (Sloan-Kettering Institute for Cancer Research, priority 2011, dated 2018).

Assays:
[1] = tested on: Hsp90; experiment: Hsp90 binding assay (fluorescence polarization, cy3B-GM displacement), human cancer cell lysate; conditions: fluorescence polarization, cy3B-GM displacement; the table does not say which lysate (SKBr3 or JNPL3)
Procedure: (§1) For the binding studies, fluorescence polarization (FP) assays w-re performed similarly as was previously reported [Du et al. (2007) “High-throughput screening fluorescence polarization assay for tumor-specific Hsp90” J. Biomol. Screen 12:915-924]. Briefly, FP measurements were performed on an Analyst GT instrument (Molecular Devices, Sunnyvale, Calif.). Measurements were taken in black 96-well microtiter plates (Corning #3650) where both the excitation and the emission occurred from the top of the well. A stock of 10 μM cy3B-GM was prepared in DMSO and diluted with HFB buffer (20 mM Hepes (K), pH 7.3, 50 mM KCl, 2 mM DTT, 5 mM MgCl2, 20 mM Na2MoO4, and 0.01% NP40 with 0.1 mg/mL BGG). The test compounds were dissolved in DMSO and added at several concentrations to the HFB assay buffer containing both 6 nM cy3B-GM and transgenic mouse brain lysate (6 μg JNPL3 lysate) or human cancer cell lysate (3 μg SKBr3 lysate) in a final volume of 100 μL. Drugs were added to triplicate wells. Free cy3B-GM (6 nM cy3B-GM), bound cy3B-GM (6 nM cy3B-GM+lysate, as indicated above) and buffer only containing wells (background) were included as controls in each plate. Plates were incubated on a shake at 4° C., and polarization values measured at 24 h. Percentage inhibition was calculated as follows: (% Control)=100−((mPc−mPf)/(mPb−mPf))×100, where mPc is the recorded mP from compound wells, mPf is the average recorded mP from cy3B-GM-only wells, and mPb is the average recorded mP from wells containing both cy3B-GM and lysate, and plotted against values of competitor concentrations. The inhibitor concentration at which 50% of bound cy3B-GM was displaced was obtained by fitting the data using a nonlinear regression analysis as implemented in Prism 4.0 (GraphPad Software).

[2] = target: T1, hERG (Homo sapiens, UniProt Q12809); experiment: hERG fluorescence polarization assay (Predictor hERG kit); assay type: binding; conditions: Predictor hERG fluorescence polarization, displacement of tracer red, read after 4 hrs; read-out: hERG assay
T1 construct: purchased Invitrogen PV5365
T1 sequence (Q12809 whole entry): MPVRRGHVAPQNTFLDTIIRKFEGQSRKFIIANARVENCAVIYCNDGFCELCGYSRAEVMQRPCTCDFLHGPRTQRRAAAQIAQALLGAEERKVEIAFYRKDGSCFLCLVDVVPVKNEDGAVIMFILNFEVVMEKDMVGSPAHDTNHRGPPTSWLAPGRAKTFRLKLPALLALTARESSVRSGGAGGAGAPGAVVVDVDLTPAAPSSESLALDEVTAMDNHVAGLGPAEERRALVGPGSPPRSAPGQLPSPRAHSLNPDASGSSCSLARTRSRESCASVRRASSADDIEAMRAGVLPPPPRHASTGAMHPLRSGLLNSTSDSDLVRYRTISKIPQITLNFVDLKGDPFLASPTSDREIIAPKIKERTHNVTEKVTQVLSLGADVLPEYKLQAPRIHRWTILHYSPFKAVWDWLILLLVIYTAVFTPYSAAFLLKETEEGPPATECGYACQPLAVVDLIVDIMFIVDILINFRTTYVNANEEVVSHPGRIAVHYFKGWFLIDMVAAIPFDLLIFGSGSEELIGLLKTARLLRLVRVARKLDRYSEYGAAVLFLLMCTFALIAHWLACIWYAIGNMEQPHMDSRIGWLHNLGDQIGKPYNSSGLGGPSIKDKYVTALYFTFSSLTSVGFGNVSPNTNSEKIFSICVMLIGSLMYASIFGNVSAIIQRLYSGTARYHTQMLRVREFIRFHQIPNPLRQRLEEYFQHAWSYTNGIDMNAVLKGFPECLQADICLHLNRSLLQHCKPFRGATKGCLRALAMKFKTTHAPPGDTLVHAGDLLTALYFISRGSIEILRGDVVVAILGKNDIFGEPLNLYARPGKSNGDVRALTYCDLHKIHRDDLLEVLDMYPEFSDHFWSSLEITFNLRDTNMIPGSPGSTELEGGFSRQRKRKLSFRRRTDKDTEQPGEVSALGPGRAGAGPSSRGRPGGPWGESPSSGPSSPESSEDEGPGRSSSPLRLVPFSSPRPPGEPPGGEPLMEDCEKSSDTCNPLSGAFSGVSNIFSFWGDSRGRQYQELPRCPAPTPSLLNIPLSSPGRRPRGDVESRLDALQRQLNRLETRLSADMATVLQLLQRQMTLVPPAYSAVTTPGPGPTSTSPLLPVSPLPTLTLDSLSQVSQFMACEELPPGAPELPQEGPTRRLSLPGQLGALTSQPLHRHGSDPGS
Procedure: hERG Fluorescence Polarization Assay:
Following the manufacturer's protocol, the hERG assay was performed using Predictor hERG Fluorescence Polarization Assay kit (catalog no. PV5365) from Invitrogen. Briefly, FP measurements were performed on an Analyst GT instrument (Molecular Devices, Sunnyvale, Calif.). Measurements were taken in black 384-well plates (Corning #3677), where both the excitation and the emission occurred from the top of the well. The test compounds were dissolved in DMSO and added at several concentrations to the Predictor hERG FP assay buffer containing 4 nM Predictor hERG tracer red and 10 μL of Predictor hERG membrane in a final volume of 20 μL. Drugs were added to triplicate wells. E-4031 as positive control was included in each plate. Plates were then kept on a shaker at room temperature and polarization values were measured after 4 hrs. The inhibition concentration at which 50% of tracer red gets displaced was obtained by fitting the data using a nonlinear regression analysis as implemented in Prism 5.0 (GraphPad Software).

[3] = tested on: Hsp90 (SKBr3 lysate); experiment: Hsp90 binding assay (fluorescence polarization, cy3B-GM displacement), human cancer cell lysate; conditions: lysate not given
Procedure: as §1

| Structure (SMILES) | IC50 [1] | IC50 [2] | Hsp90 binding affinity (in words, referring to Table 12) [3] |
| --- | --- | --- | --- |
| CC(C)(C)C(=O)NCCCn1c(Sc2cc3c(cc2I)OCO3)nc2c(N)ncnc21 [Compound 1A-43, N-(3-(6-amino-8-((6-iodobenzo[d][1,3]dioxol-5-yl)thio)-9H-purin-9-yl)propyl)pivalamide] | 11 nM | > 100000 nM | – |
| Nc1nc(F)nc2c1nc(Cc1cc3c(cc1I)OCO3)n2CCCNC(=O)C1CC1 [Compound 4A-45, Cyclopropanecarboxylic acid {3-[6-amino-2-fluoro-8-(6-iodo-benzo[1,3]dioxol-5-ylmethyl)-purin-9-yl]-propyl}-amide] | 20 nM | > 100000 nM | high level of binding affinity |
| Nc1ncnc2c1nc(Sc1cc3c(cc1I)OCO3)n2CCCNC(=O)C1CC1 [Compound 1A-45, N-(3-(6-amino-8-((6-iodobenzo[d][1,3]dioxol-5-yl)thio)-9H-purin-9-yl)propyl)cyclopropane carboxamide] | 9.8 nM | > 100000 nM | – |
| CC(C)(C)C(=O)NCCCn1c(Cc2cc3c(cc2I)OCO3)nc2c(N)nc(F)nc21 [Compound 4A-43, N-{3-[6-Amino-2-fluoro-8-(6-iodo-benzo[1,3]dioxol-5-ylmethyl)-purin-9-yl]-propyl}-2,2-dimethyl-propionamide] | 33.1 nM | > 100000 nM | high level of binding affinity |
| C#Cc1cc2c(cc1Sc1nc3c(N)ncnc3n1CCCNC(=O)C1CC1)OCO2 [Compound 1B-45, Cyclopropanecarboxylic acid {3-(6-amino-8-(6-ethynyl-benzo[1,3]dioxol-5-ylsulfanyl)-purin-9-yl]-propyl}-amide] | 37 nM | > 100000 nM | high level of binding affinity |
| C#Cc1cc2c(cc1Sc1nc3c(N)ncnc3n1CCCNS(=O)(=O)C1CC1)OCO2 [Compound 1B-28, Cyclopropanesulfonic acid {3-[6-amino-8-(6-ethynyl-benzo[1,3]dioxol-5-ylsulfanyl)-purin-9-yl]-propyl}-amide] | 53 nM | > 100000 nM | high level of binding affinity |
| Nc1nc(F)nc2c1nc(Cc1cc3c(cc1I)OCO3)n2CCCNS(=O)(=O)C1CC1 [Compound 4A-28, N-(3-(6-amino-2-fluoro-8-((6-iodobenzo[d][1,3]dioxol-5-yl)methyl)-9H-purin-9-yl)propyl)cyclopropane-sulfonamide] | 24 nM | > 100000 nM | high level of binding affinity |
| CC(C)(O)C(=O)NCCCn1c(Sc2cc3c(cc2I)OCO3)nc2c(N)ncnc21 [Compound 1A-48, N-(3-(6-Amino-8-((6-iodobenzo[d][1,3]dioxol-5-yl)thio)-9H-purin-9-yl)propyl)-2-hydroxy-2-methylpropanamide] | 22.1 nM | 12000 nM | – |
| C#Cc1cc2c(cc1Sc1nc3c(N)ncnc3n1CCCNC(=O)C(C)(C)C)OCO2 [Compound 1B-43, N-{3-[6-Amino-8-(6-ethynyl-benzo[1,3]dioxol-5-ylsulfanyl)-purin-9-yl]-propyl}-2,2-dimethyl-propionamide] | 28 nM | > 100000 nM | high level of binding affinity |
| CC(C)(C)[S+]([O-])NCCCn1c(Cc2cc3c(cc2I)OCO3)nc2c(N)nc(F)nc21 (centres unmarked) [Compound 4A-26, N-(3-(6-amino-2-fluoro-8-((6-iodobenzo[d][1,3]dioxol-5-yl)methyl)-9H-purin-9-yl)propyl)-2-methylpropane-2-sulfinamide] | 26.2 nM | > 100000 nM | high level of binding affinity |
| CN(C)c1cc2c(cc1Sc1nc3c(N)ncnc3n1CCCNC(=O)C1CC1)OCO2 [Compound 1G-45, Cyclopropanecarboxylic acid {3-[6-amino-8-(6-dimethylamino-benzo[1,3]dioxol-5-ylsulfanyl)-purin-9-yl]-propyl}-amide] | 15 nM | 76000 nM | high level of binding affinity |
| CC(C)NS(=O)(=O)CCCn1c(Sc2cc3c(cc2I)OCO3)nc2c(N)ncnc21 [Compound 1A-15, 3-[6-Amino-8-(6-iodo-benzo[1,3]dioxol-5-ylsulfanyl)-purin-9-yl]-propane-1-sulfonic acid isopropylamide] | 20.5 nM | > 100000 nM | high level of binding affinity |
| CC(C)(C)[S+]([O-])NCCCn1c(Sc2cc3c(cc2I)OCO3)nc2c(N)ncnc21 (centres unmarked) [Compound 1A-26, 2-Methyl-propane-2-sulfinic acid {3-[6-amino-8-(6-iodo-benzo[1,3]dioxol-5-ylsulfanyl)-purin-9-yl]-propyl}-amide] | 12 nM | > 100000 nM | – |
| CN(C)c1cc2c(cc1Sc1nc3c(N)ncnc3n1CCCNC(=O)C(C)(C)C)OCO2 [Compound 1G-43, N-{3-[6-Amino-8-(6-dimethylamino-benzo[1,3]dioxol-5-ylsulfanyl)-purin-9-yl]-propyl}-2,2-dimethyl-propionamide] | 11 nM | > 100000 nM | high level of binding affinity |
| CC(C)S(=O)(=O)NCCCn1c(Sc2cc3c(cc2I)OCO3)nc2c(N)ncnc21 [Compound 1A-22, Propane-2-sulfonic acid {3-[6-amino-8-(6-iodo-benzo[1,3]dioxol-5-ylsulfanyl)-purin-9-yl]-propyl}-amide] | 47 nM | > 100000 nM | high level of binding affinity |
